Here are results for 2 molecules from article PMC6022228, “Introducing novel potent anticancer agents of 1H-benzo[f]chromene scaffolds, targeting c-Src kinase enzyme with MDA-MB-231 cell line anti-invasion effect” (Journal of Enzyme Inhibition and Medicinal Chemistry, 2018).

In general, melting point refers to the temperature of the solid-liquid transition.

In brackets after ≈: the same amount, converted by molar mass. Several values for one entry are separate records, joined by “and”; a condition that tells them apart may be missing. Equal entries are not always repeated. Where two headings read alike, the source gives them in different places.

Data set [1] concerns MCF-7. Description: MTT viability assay, MCF-7 (breast cancer). It counts as cell-based. The note with it: Homo sapiens, MCF7, 24 h incubation, mean ± standard error. The method, then:
(§1) Compounds 4a–h and 6a–h were initially evaluated for in vitro antitumour activity against three different human cell lines: MCF-7, HCT-116, and HepG-2, and only the representative active cytotoxic compounds were further evaluated against the normal HFL-1 cell line. The in vitro cytotoxicity evaluation was performed at the Regional Center for Mycology & Biotechnology (RCMP), Al-Azhar University under different concentrations (50, 25, 12.5, 6.25, 3.125, 1.56, and 0 µg/mL); Vinblastine and Doxorubicin are used as reference cytotoxic compounds. The measurements of cell growth and the in vitro cytotoxicity evaluation were determined using viability assay as described in literature[31–33] and the result was cited in Table 1 and Figure 2.
(§2) The in vitro cytotoxic evaluation of the prepared compounds 4a–h and 6a–h was performed against MCF-7 (breast cancer), HCT-116 (human colon cancer), HepG-2 (liver cancer), and HFL-1(normal fibroblast lung) using the 3-(4,5-dimethylthiazol-2-yl)-2,5-diphenyl tetrazolium bromide (MTT) colorimetric assay as described in literature. […] The results were expressed as growth inhibitory concentration (IC50) values, which represent the compounds’ concentrations required to produce a 50% inhibition of the cell growth after 24 h of incubation, compared to the untreated controls as shown in Table 1 and Figure 2.
A general note: Tetrazolium assays rely on reduction of a dye to a coloured formazan, in cell work by metabolically active cells.

For data set [2], the system named is HCT-116. Briefly: MTT viability assay, HCT-116 (human colon cancer). It counts as cell-based. Particulars: 24 h incubation, mean ± standard error. Here is the method:
as §1, §2

The subject of data set [3] is HepG-2. Briefly: MTT viability assay, HepG-2 (liver cancer). It counts as cell-based. The note with it: Homo sapiens, HepG2, 24 h incubation, mean ± standard error. The method, then: as §1, §2
For data set [4], the system named is HFL-1. Briefly: MTT viability assay, HFL-1 (normal fibroblast lung). It counts as cell-based. The note with it: Homo sapiens, HFL1, 24 h incubation, normal cell line, mean ± standard error. The method, then: as §1, §2
The subject of data set [5] is MDA-MB-231 cell line. Briefly: Cell invasion assay. It counts as cell-based. The note with it: Homo sapiens. Here is the method: The cell invasion assay was performed by Reaction Biology Corporation, One Great Valley Parkway, PA. All compounds were dissolved in DMSO and tested for their ability to cell invasion assay. Compounds 4c, 6e, and reference compound bosutinib were purchased from Sellechem (Houston, TX). Corning Bio Coat Fluoro Blok Insert System-96-well plates were purchased from Corning (Corning Incorporated, Tewksbury, MA). Calcein AM labelling reagent was purchased from Molecular Probes (Eugene, Oregon). MDA-MB-231 cell line was purchased from American Type Culture Collection (Manassas, VA). MDA-MB-231 cells were grown in DMEM medium supplemented with 10% foetal bovine serum (FBS), 100 µg/mL of penicillin, and 100 µg/mL of streptomycin. Cultures were maintained at 37 °C in a humidified atmosphere of 5% CO2 and 95% air-following incubation; medium was carefully removed from the apical chambers. The insert system was transferred into a second 96-square well plate containing 200 µl/well of 4 µg/mL Calcein AM in HBSS. The plates were incubated for 1 h at 37 °C, 5% CO2. Fluorescence of invaded cells was read at wavelengths of 492/535 nm (Ex/Em) from bottom reading using Envision 2104 Multilabel Reader (PerkinElmer, Santa Clara, CA). The IC50 curves were plotted and IC50 values were calculated using the Graph Pad Prism 4 program for windows (Graph Pad software, San Diego California. www.graphpad.com) based on a sigmoidal dose-response equation.
Tumour invasion is a common feature of triple-negative breast cancers. […] The invasion process has become an important prerequisite for cancer progression and metastasis. […] A bosutinib drug was used as a control ant-invasive agent. […] The obtained data might confirm that the cytotoxicity of novel molecules led to the death of the cancer cells and stopped the metastatic processes.

The subject of data set [6] is caspases 3/7 in MDA-MB-231 cells. Briefly: Caspase-Glo 3/7 activity assay. It counts as cell-based. Particulars: Homo sapiens, 24 h treatment, 10 concentrations, read-out: Caspase-Glo 3/7 activity assay, MDA-MB-231 cell line, IC50. Here is the method:
The Caspase-Glo 3/7 activity assay was performed by Reaction Biology Corporation, One Great Valley Parkway, PA. Examined compounds 4c, 4e, 4h, 6d, and 6e were dissolved in DMSO as 20 mM stock and tested for their ability to Caspase-Glo 3/7 activity assay. […] Caspase-Glo 3/7 activity assay reagent was purchased from Promega (Madison, WI). MDA-MB-231 cell line was provided by ATCC. MDA-MB-231 cell line culture conditions: DMEM with 10% FBS. 100 µg/mL penicillin and 100 µg/mL streptomycin were added to the culture media. Cultures were maintained at 37 °C in a humidified atmosphere of 5% CO2 and 95% air.
Caspases are […] that promote apoptosis. Caspases are vital biochemical features of apoptotic signalling. […] To determine whether the cell growth inhibition in response to the benzochromene derivatives was mediated by apoptosis and was caspase dependent, MDA-MB-231 cells were treated with 10 different concentrations of the target compounds for 24 h.

Data set [7] deals with T1, c-Src kinase (Homo sapiens, UniProt P12931).
T1 construct: purchased Cell Signaling Technology (Danvers, MA) 7776
Description: c-Src kinase assay (HTScan Src Kinase Assay Kit). It counts as biochemical. Particulars: GST-Src kinase, triplicate; read-out: Inhibition of c-Src kinase activity, IC50. The method, then: Streptavidin-coated plates were purchased from Pierce (Rockford, IL). […] The reaction mixture was incubated for 30 min at room temperature. The kinase reaction was stopped with the addition of 50 µL of 50 mM EDTA (pH 8.0). […] At the end of the incubation, the wells were washed three times with 200 µL of 0.05% Tween-20 in PBS buffer (PBS/T). After that to each well was added 100 µL of phosphotyrosine antibody (P-Tyr-100) (1:1000 dilution in PBS/T with 1% BSA) and the wells were incubated for another 60 min. After washing three times with 0.05% Tween-20 in PBS/T, the wells were incubated with 100 µL secondary anti-mouse IgG antibody, which was HRP-conjugated (1:500 dilution in PBS/T with 1% BSA) for next 30 min at room temperature. The wells were washed five times with 0.05% Tween-20 in PBS and then were incubated with 100 µL of 3,3′,5,5′-tetramethylbenzidine dihydrochloride substrate for 5 min. […] IC50 values of the compounds were calculated using ORIGIN 6.0 (Origin Lab Corporation, Northampton, MA) software. […] All the experiments were carried out in triplicate.

[8] abbreviates: Table 2, read-out: IC50 anti-invasion, MDA-MB-231 breast cancer cells.

T1 sequence (P12931 whole entry): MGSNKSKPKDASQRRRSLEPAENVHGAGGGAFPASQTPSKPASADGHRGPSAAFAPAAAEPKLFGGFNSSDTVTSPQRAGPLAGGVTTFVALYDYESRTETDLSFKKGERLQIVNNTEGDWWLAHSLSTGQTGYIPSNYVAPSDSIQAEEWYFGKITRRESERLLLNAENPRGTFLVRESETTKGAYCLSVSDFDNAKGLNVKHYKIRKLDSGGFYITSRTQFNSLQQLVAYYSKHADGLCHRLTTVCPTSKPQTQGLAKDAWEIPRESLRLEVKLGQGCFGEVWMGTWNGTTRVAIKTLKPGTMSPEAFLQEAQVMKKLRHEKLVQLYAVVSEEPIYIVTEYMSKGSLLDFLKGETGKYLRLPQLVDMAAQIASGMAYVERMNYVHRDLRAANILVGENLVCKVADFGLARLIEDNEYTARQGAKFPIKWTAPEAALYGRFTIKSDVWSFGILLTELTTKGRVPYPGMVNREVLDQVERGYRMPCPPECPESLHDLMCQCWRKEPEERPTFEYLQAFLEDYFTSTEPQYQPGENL

Turning to `N#CC1=C(N)Oc2ccc3cc(Br)ccc3c2C1c1ccc(Cl)cc1` (centres unmarked) [Compound 4c, 3-Amino-8-bromo-1-(4-chlorophenyl)-1H-benzo[f]chromene-2-carbonitrile], the melting point fell in the range of 260 to 261 °C. The same molecule registered an IC50 in data set [1] of 0.5 ± 0.23 µg/mL (≈ 1.21 µM). In data set [2], this molecule showed an IC50 of 0.7 ± 0.11 µg/mL (≈ 1.7 µM). In data set [3], this molecule came in with an IC50 of 1.1 ± 0.12 µg/mL (≈ 2.67 µM). The molecule also yielded an IC50 in data set [4] of 15.2 ± 0.1 µg/mL (≈ 36.9 µM). Also, in data set [5] (setting [8]), the IC50 amounted to 10.8 µM. For the same molecule, the IC50 in data set [5] (read-out: IC50 anti-invasion activity, MDA-MB-231) turned out to be 10.5 µM. For the same molecule, in data set [6], the IC50 was found to be 22.6 µM. The IC50 in data set [7] was 0.009 to 0.329 µM and 0.089 µM.

Consider `COc1ccc2c3c(ccc2c1)OC(N)=C(C#N)C3c1ccc(C)cc1` (centres unmarked) [Compound 6e, 3-Amino-8-methoxy-1-(4-methylphenyl)-1H-benzo[f]chromene-2-carbonitrile], for which the melting point was 232 to 233 °C. In addition, the IC50 in data set [1] was 0.3 ± 0.05 µg/mL (≈ 0.876 µM). The same molecule returned an IC50 in data set [2] of 0.8 ± 0.06 µg/mL (≈ 2.34 µM). The IC50 in data set [3] is 0.6 ± 0.21 µg/mL (≈ 1.75 µM). This molecule also registered an IC50 in data set [4] of 29.7 ± 0.17 µg/mL (≈ 86.7 µM). Also, in data set [5] (setting [8]), the IC50 was 16.5 µM. Further, in data set [6], the IC50 was 38.9 µM. In data set [7], the IC50 came out at 0.009 µM.
